Laboratory results reported in US12318365B2, “Inhibition of dipeptide repeat proteins” (ALS Therapy Development Institute, priority 2019, dated 2025).
No end group written: not given here.

Legend:
NSC-34 cells = assay: Caspase-3 assay (apoptotic activity) in NSC-34 cells; assay type: cell-based; conditions: for DRP-induced apoptotic activity: DRP 0.01-3 μM, 24 h, compared to DMSO-treated controls
Source text: Caspase-3/CPP32 Assay: The caspase-3 assay is a fluorometric assay that measures apoptotic cell death. Apoptosis is a form of “programmed” cell death, in which a certain family of proteins inside the cell triggers a cascade of chemical reactions that result in the cell killing itself. One family of proteins involved in this process is the caspase protein family. Of the caspase proteins, caspase-2, 8, 9, and 10 are known as “initiators,” those that trigger the death cascade, and caspase-3, 6, and 7 are known as “executioners,” which carry out the actual killing of the cell. In a caspase-3 assay, cells treated with test compounds are lysed, and a substrate known as DEVD-AFC is added to the lysate. If active caspase-3 enzyme is present in the lysate, it will cleave AFC from the DEVD-AFC substrate, resulting in a fluorescent signal that can be quantified using a fluorescence microtiter plate reader. Thus, the apoptotic activity of cells treated with test compounds can be quantified. Greater fluorescence readings correspond to more apoptotic cell death.
Cells were plated in culture medium in 2 96-well plates at a density of 3.7×10^4 cells per well, and incubated overnight at 37° C., 5% CO2. The following day, immediately prior to addition of test compounds, existing culture medium was removed and replaced with staggered volumes of culture medium as in Example 1. A 10 mM stock of MS023 was thawed to room temperature and diluted as in Example 1. A 10 mM stock of GR15 (SEQ ID NO: 1) and a 10 mM stock of PR15 (SEQ ID NO: 2) were equilibrated to room temperature and diluted in warm culture medium to achieve a final concentration of 300 nM in wells.
The following conditions were plated in triplicate. Samples were surrounded by border wells on the outside of the plate filled with sterile Phosphate-buffered saline to prevent evaporation of volume in experimental wells during incubation; • Background (Culture medium only) • Untreated/“Cells Only” (Cells in culture medium) • DMSO Control (Cells treated only with the amount of DMSO that GR- and PR-treated cells were exposed to) • GR Only (Cells treated only with 300 nM GR15) (SEQ ID NO: 1) • Cells treated with […] GR15 (SEQ ID NO: 1) and one of the following doses of MS023: 60 μM, 30 μM, 10 μM, 3 μM, 1 μM. • PR Only (Cells treated only with 300 nM PR15) (SEQ ID NO: 2) • Cells treated with 300 nM PR15 (SEQ ID NO: 2) and one of the following doses of MS023: 60 μM, 30 μM, 10 μM, 3 μM, 1 μM. • Cells treated with only one of the following doses of MS023: 60 μM, 30 μM, 10 μM, 3 μM, 1 μM. • Positive controls (Cells treated with either 5 or 16 μM PAC-1 Caspase-3 activator)
Plates were incubated for 24 h at 37° C., 5% CO2. Cells were tested and data were analyzed using the procedure detailed in Caspase-3 assay kit instructions.
Cells were plated in culture medium in 2 96-well plates at a density of 3.7×10^4 cells per well, and incubated overnight at 37° C., 5% CO2. The following day, immediately prior to addition of test compounds, existing culture medium was removed and replaced with staggered volumes of culture medium as in Example 1. A 10 mM stock of MS023 was thawed to room temperature and diluted in warm culture medium to achieve final concentrations of 3, 1, 0.3, 0.1, 0.03, and 0.01 μM in plate. A 10 mM stock of GR15 (SEQ ID NO: 1) and a 10 mM stock of PR15 (SEQ ID NO: 2) were equilibrated to room temperature and diluted in warm culture medium to achieve a final concentration of 3 μM in wells.
The following conditions were plated in triplicate. […]

[1] = target: T1, Recombinant PRMT1 protein (Homo sapiens, UniProt Q99873); assay: In-vitro arginine methylation assay with recombinant PRMT1 and SAM; assay type: biochemical; conditions: 37 degrees Celsius, 2 hours, no methylation without PRMT1 or SAM
T1 construct: purchased Active Motif 31411
T1 sequence (Q99873 whole entry): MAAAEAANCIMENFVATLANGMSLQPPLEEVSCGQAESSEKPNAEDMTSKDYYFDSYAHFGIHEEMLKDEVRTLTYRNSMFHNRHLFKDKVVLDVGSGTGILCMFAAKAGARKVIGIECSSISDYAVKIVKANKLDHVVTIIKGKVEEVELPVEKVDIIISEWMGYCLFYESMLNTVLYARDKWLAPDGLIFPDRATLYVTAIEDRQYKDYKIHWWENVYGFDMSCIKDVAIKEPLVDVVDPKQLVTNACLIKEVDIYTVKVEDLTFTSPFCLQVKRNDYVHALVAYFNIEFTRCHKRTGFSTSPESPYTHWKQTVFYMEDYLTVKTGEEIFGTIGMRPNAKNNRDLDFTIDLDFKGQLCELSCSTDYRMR
Method: To assess interaction between PRMT1 and GR15, (SEQ ID NO: 1) an in-vitro methylation assay system was developed. This system consists of a mixture of recombinant PRMT1 enzyme, S-(5′-Adenosyl)-L-methionine iodide, (SAM) as a methyl donor, and potential substrate of PRMT1 activity. For this experiment, 11 tubes were prepared, each containing various amount of the following components; • Recombinant PRMT1 protein (Active Motif, Cat. 31411) • S-(5′-Adenosyl)-L-methionine iodide, (SAM) (Sigma-Aldrich Cat. A4377) • GR15(SEQ ID NO: 1) • PR15(SEQ ID NO: 2) • SOD1 from human erythrocytes (S9636-1KU)
These constituents were mixed in a 0.5 ml flat-capped tubes (Thermo Fisher Scientific, AB0350) according to Table 4 (all values are in microliters (μl)).
Once all tubes were prepared, each tube was gently tapped to ensure mixture, and the tubes were placed in an incubator at 37 degrees Celsius for 2 hours. After 2 hours, the reaction mixture was stopped with the addition of 10 μl of NuPage LDS Sample Buffer (Thermo Fisher Scientific, NP0007). The tubes were gently tapped to ensure mixture, and then boiled for 5 minutes in a 95 degrees Celsius water bath. […]
The gel was then transferred using the iBlot apparatus and an iBlot 2 Nitrocellulose Mini Stack (Thermo Fisher Scientific, IB23002). […] Following wash steps, the membrane was read on the LI-COR Odyssey Classic Imaging System.

Compound	DRP-induced apoptotic activity (NSC-34 cells)	dose dependence of abrogation of GR-induced apoptotic activity (NSC-34 cells; 300 nM GR15, 24 h, MS023 1-60 μM)	abrogation of GR-induced apoptotic activity (NSC-34 cells; 300 nM GR15, 24 h, doses 3 and 1 μM)	abrogation of GR-induced apoptotic activity (NSC-34 cells; 300 nM GR15, 24 h, doses 60, 30 and 10 μM)	dose dependence of abrogation of PR-induced apoptotic activity (NSC-34 cells; 300 nM PR15, 24 h, MS023 1-60 μM)	abrogation of PR-induced apoptotic activity (NSC-34 cells; 300 nM PR15, 24 h, all doses (1-60 μM))	dose dependence of abrogation of GR-induced apoptotic activity (NSC-34 cells; 3 μM GR15, 24 h, MS023 0.01-3 μM)	abrogation of GR-induced apoptotic activity (NSC-34 cells; 3 μM GR15, 24 h, all doses (0.01-3 μM))	abrogation of GR-induced apoptotic activity (NSC-34 cells; 3 μM GR15, 24 h, dose 3 μM)	dose dependence of abrogation of PR-induced apoptotic activity (NSC-34 cells; 3 μM PR15, 24 h, MS023 0.01-3 μM)	abrogation of PR-induced apoptotic activity (NSC-34 cells; 3 μM PR15, 24 h, all doses (0.01-3 μM))	abrogation of PR-induced apoptotic activity (NSC-34 cells; 3 μM PR15, 24 h, dose 3 μM)	asymmetric methylation of the peptide as substrate (anti-H4R3me2a detection) [1]
PRPRPRPRPRPRPRPRPRPRPRPRPRPRPR [PR15]	producing the most significant amount of apoptotic activity	–	–	–	–	–	–	–	–	–	–	–	–
CC(C)Oc1ccc(-c2c[nH]cc2CN(C)CCN)cc1 [MS023]	–	dose-dependently	fully abrogated	partially abrogated	dose-dependently	fully abrogated	dose-dependently abrogated	partially abrogated	fully abrogated	dose-dependently abrogated	partially abrogated	fully abrogated	–
GRGRGRGRGRGRGRGRGRGRGRGRGRGRGR [GR15]	producing the most significant amount of apoptotic activity	–	–	–	–	–	–	–	–	–	–	–	is asymmetrically methylated by PRMT1
